Laboratory results from US10738028B2, “Spiro three-membered ring, spiro five-membered ring peptide deformylase inhibitor and use thereof in antibacteria and anti-tumor” (priority 2016, dated 2020).
≈ marks a conversion by molar mass, not a printed value.

Legend:
[1] = due to instability in metabolism in the body; cited from earlier work
[2] = test system: HCT-116 colorectal cancer cell line; assay: CCK-8 proliferation inhibition; type: cell-based; conditions: Homo sapiens, HCT-116, 72 h, read-out: HCT116 inhibition rate/%
Procedure, shortened: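 Cells seeded at 2000 cells/well, cultured overnight at 37 °C, 5% CO2, then exposed to compound (DMSO; control 1‰ DMSO) for 72 h in McCoy's 5A with 10% newborn bovine serum. Viability read with 1:10 diluted CCK-8.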

[3] = test system: methemoglobin in blood samples of three healthy volunteers; assay: Toxicity on methemoglobin in vitro (whole blood with S9 and NADPH, absorbance at 630 nm); type: cell-based, human; conditions: 500 μM compound; whole blood + S9 + NADPH; 5 hours at 37° C.
Procedure, shortened: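 Fresh EDTA whole blood from three healthy volunteers incubated 5 h at 37 °C with human liver S9 (2 mg/mL), NADPH-generating system and compound at 500 μM final. Lysed in 1% Triton X-100; MetHb % from 630 nm absorbance relative to ferricyanide-oxidized blood.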

[4] = test system: the test strains; assay: MIC against the test strains (strain not given); type: cell-based; conditions: read-out: MIC (azole amide bioisosteres)
Excerpt: 1. The invention adopts the two-fold agar dilution method recommended by the operating procedure of antimicrobial susceptibility testing set by American Clinical and Laboratory Standards Institute (CLSI) to determine the Minimum Inhibitory Concentration (MIC) of the test samples against the tested strains.

[5] = test system: methicillin-sensitive Staphylococcus aureus (MSSA); assay: MIC, two-fold agar dilution (CLSI), clinical isolates; type: cell-based
Procedure, shortened: (§1)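 MIC values come from two-fold agar dilution run per CLSI antimicrobial susceptibility testing procedure.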

[6] = test system: methicillin-resistant Staphylococcus aureus (MRSA); assay: as above; type: cell-based
Procedure, shortened: as §1

[7] = test system: Enterococcus faecalis (EFA); assay: as above; type: cell-based
Procedure, shortened: as §1

[8] = test system: methicillin-resistant Staphylococcus epidermidis (MRSE); assay: as above; type: cell-based
Procedure, shortened: as §1

[9] = test system: methicillin-sensitive Staphylococcus epidermidis (MSSE); assay: as above; type: cell-based
Procedure, shortened: as §1

[10] = test system: Escherichia coli (including ESBLs, non-ESBLs); assay: as above; type: cell-based
Procedure, shortened: as §1

[11] = at a high dose; Clin. Pharmacol. Ther. 2011, 90, 256; cited from earlier work
[12] = test system: Enterococcus faecium (EFM); assay: MIC, two-fold agar dilution (CLSI), clinical isolates; type: cell-based
Procedure, shortened: as §1

[13] = test system: Streptococcus pneoumoniae (SPN); assay: as above; type: cell-based
Procedure, shortened: as §1

[14] = test system: Moraxella catarrhalis (BCA); assay: as above; type: cell-based
Procedure, shortened: as §1

CCCCC[C@H](CC(=O)NO)C(=O)N[C@H](C(=O)N1CCC[C@H]1CO)C(C)C [Actinonin]
activity in vivo [1]: no activity in vivo

CCCC[C@H](CN(O)C=O)C(=O)N1CC2(CC2)C[C@H]1c1nnc2ccccn12 [Example 13, N—((R)-2-((S)-6-([1,2,4]triazole[4,3-a]pyridin-3-yl)-5-azaspiro[2.4]heptane-5-carbonyl)hexyl)-N-hydroxyamide]
inhibition at 30 µM [2]: 13% | MetHb % (n = 3) [3]: 1.15 ± 0.06% | MIC [4]: 0.5 to 2 mg/L (≈ 1.3 to 5.19 µM) | MIC (anti-bacterial activity) ([5]; strain MSSA 14-1): 1 mg/L (≈ 2.59 µM) | MIC (anti-bacterial activity) ([5]; strain MSSA 14-2): 1 mg/L (≈ 2.59 µM) | MIC (anti-bacterial activity) ([5]; strain MSSA 14-3): 1 mg/L (≈ 2.59 µM) | MIC (anti-bacterial activity) ([5]; strain MSSA 14-4): 1 mg/L (≈ 2.59 µM) | MIC (anti-bacterial activity) ([6]; strain MRSA 14-1): 1 mg/L (≈ 2.59 µM) | MIC (anti-bacterial activity) ([6]; strain MRSA 14-2): 1 mg/L (≈ 2.59 µM) | MIC (anti-bacterial activity) ([6]; strain MRSA 14-4): 1 mg/L (≈ 2.59 µM) | MIC (anti-bacterial activity) ([6]; strain MRSA 14-5): 1 mg/L (≈ 2.59 µM) | MIC (anti-bacterial activity) ([6]; strain printed MRSA 14-1 (second line of that name, r23, before MRSE 14-2)): 0.5 mg/L (≈ 1.3 µM) | MIC (anti-bacterial activity) ([7]; strain EFA 14-1): 4 mg/L (≈ 10.4 µM) | MIC (anti-bacterial activity) ([7]; strain EFA 14-2): 8 mg/L (≈ 20.8 µM) | MIC (anti-bacterial activity) ([7]; strain EFA 14-3): 8 mg/L (≈ 20.8 µM) | MIC (anti-bacterial activity) ([7]; strain EFA 14-5): 8 mg/L (≈ 20.8 µM) | MIC (anti-bacterial activity) ([8]; strain MRSE 14-2): 0.5 mg/L (≈ 1.3 µM) | MIC (anti-bacterial activity) ([8]; strain MRSE 14-3): 0.25 mg/L (≈ 0.649 µM) | MIC (anti-bacterial activity) ([8]; strain MRSE 14-4): 1 mg/L (≈ 2.59 µM) | MIC (anti-bacterial activity) ([9]; strain MSSE 14-1): 0.25 mg/L (≈ 0.649 µM) | MIC (anti-bacterial activity) ([9]; strain MSSE 14-2): 0.5 mg/L (≈ 1.3 µM) | MIC (anti-bacterial activity) ([9]; strain MSSE 14-3): 0.5 mg/L (≈ 1.3 µM) | MIC (anti-bacterial activity) ([9]; strain MSSE 14-4): 0.5 mg/L (≈ 1.3 µM) | MIC (anti-bacterial activity) ([10]; strain ECO+ 14-1): 2 mg/L (≈ 5.19 µM) | MIC (anti-bacterial activity) ([10]; strain ECO+ 14-2): 128 mg/L (≈ 332 µM) | MIC (anti-bacterial activity) ([10]; strain ECO− 14-1): 128 mg/L (≈ 332 µM) | MIC (anti-bacterial activity) ([10]; strain ECO− 14-2): 128 mg/L (≈ 332 µM)

CCCC[C@H](CN(O)C=O)C(=O)N1CCC[C@H]1C(=O)Nc1ccc(F)c[n+]1[O-] [LBM415, reference compound]
adverse effect in Phase I clinical trial [11]: could cause methemoglobinemia at a high dose | MetHb % (n = 3) [3]: 3.05 ± 0.01% | Anti-bacterial activity (MIC) ([12]; strain EFM 15-1): 2 mg/L | Anti-bacterial activity (MIC) ([12]; strain EFM 15-2): 2 mg/L | Anti-bacterial activity (MIC) ([12]; strain EFM 15-3): 4 mg/L | Anti-bacterial activity (MIC) ([12]; strain EFM 15-4): 8 mg/L | Anti-bacterial activity (MIC) ([12]; strain EFM 15-5): 4 mg/L | Anti-bacterial activity (MIC) ([12]; strain EFM 15-6): 4 mg/L | Anti-bacterial activity (MIC) ([5]; strain MSSA 15-3): 0.5 mg/L | Anti-bacterial activity (MIC) ([5]; strain MSSA 15-4): 0.5 mg/L | Anti-bacterial activity (MIC) ([5]; strain MSSA 15-5): 0.5 mg/L | Anti-bacterial activity (MIC) ([5]; strain MSSA 15-6): 0.5 mg/L | MIC ([6]; Staphylococcus aureus, MRSA, range over strains, read-out: minimum inhibitory concentration MIC against methicillin-resistant Staphylococcus (MRSA)): 0.5 to 1 mg/L (≈ 1.26 to 2.52 µM) | Anti-bacterial activity (MIC) ([6]; strain MRSA 15-1): 1 mg/L | Anti-bacterial activity (MIC) ([6]; strain MRSA 15-2): 1 mg/L | Anti-bacterial activity (MIC) ([6]; strain MRSA 15-3): 1 mg/L | Anti-bacterial activity (MIC) ([6]; strain MRSA 15-4): 0.5 mg/L | Anti-bacterial activity (MIC) ([7]; strain EFA 15-1): 2 mg/L | Anti-bacterial activity (MIC) ([7]; strain EFA 15-2): 2 mg/L | Anti-bacterial activity (MIC) ([7]; strain EFA 15-3): 2 mg/L | Anti-bacterial activity (MIC) ([7]; strain EFA 15-4): 2 mg/L | Anti-bacterial activity (MIC) ([7]; strain EFA 15-5): 2 mg/L | Anti-bacterial activity (MIC) ([7]; strain EFA 15-6): 128 mg/L | Anti-bacterial activity (MIC) ([7]; strain EFA 15-9): 128 mg/L | Anti-bacterial activity (MIC) ([8]; strain MRSE 15-1): 0.125 mg/L | Anti-bacterial activity (MIC) ([8]; strain MRSE 15-2): 0.125 mg/L | Anti-bacterial activity (MIC) ([8]; strain MRSE 15-3): 0.06 mg/L | Anti-bacterial activity (MIC) ([8]; strain MRSE 15-7): 0.125 mg/L | Anti-bacterial activity (MIC) ([9]; strain MSSE 15-3): 0.06 mg/L | Anti-bacterial activity (MIC) ([9]; strain MSSE 15-4): 0.5 mg/L | Anti-bacterial activity (MIC) ([9]; strain MSSE 15-5): 0.06 mg/L | Anti-bacterial activity (MIC) ([9]; strain MSSE 15-6): 128 mg/L | Anti-bacterial activity (MIC) ([13]; strain SPN 16-2): 2 mg/L | Anti-bacterial activity (MIC) ([13]; strain SPN 16-4): 2 mg/L | Anti-bacterial activity (MIC) ([10]; strain ECO+ 15-1): 64 mg/L | Anti-bacterial activity (MIC) ([10]; strain ECO+ 15-2): 64 mg/L | Anti-bacterial activity (MIC) ([10]; strain ECO+ 15-3): 64 mg/L | Anti-bacterial activity (MIC) ([10]; strain ECO+ 15-4): 64 mg/L | Anti-bacterial activity (MIC) ([10]; strain ECO− 15-1): 64 mg/L | Anti-bacterial activity (MIC) ([10]; strain ECO− 15-2): 64 mg/L | Anti-bacterial activity (MIC) ([10]; strain ECO− 15-3): 64 mg/L | Anti-bacterial activity (MIC) ([10]; strain ECO− 15-4): 64 mg/L | MIC ([14]; Moraxella catarrhalis, 7 clinical isolates, range over strains, read-out: Moraxella catarrhalis (n = 7) MIC): 0.5 to 2 mg/L (≈ 1.26 to 5.05 µM) | Anti-bacterial activity (MIC) ([14]; strain BCA 14-1): 2 mg/L | Anti-bacterial activity (MIC) ([14]; strain BCA 14-4): 2 mg/L | Anti-bacterial activity (MIC) ([14]; strain BCA 14-5): 1 mg/L | Anti-bacterial activity (MIC) ([14]; strain BCA 14-6): 2 mg/L | Anti-bacterial activity (MIC) ([14]; strain BCA 14-7): 0.5 mg/L | Anti-bacterial activity (MIC) ([14]; strain BCA 14-8): 0.5 mg/L | Anti-bacterial activity (MIC) ([14]; strain BCA 14-10): 0.5 mg/L
